# From patent US20260184707A1, “PHARMACEUTICAL COMPOUNDS FOR THE TREATMENT OF COMPLEMENT MEDIATED DISORDERS” (ALEXION PHARMACEUTICALS, INC., priority 2022, published 2026)
# Molecular target: T1, Human complement C1s enzyme (Homo sapiens, UniProt P09871)
# T1 construct: purified from human serum, Complement Technology, Inc; purchased Complement Technology, Inc; host or cells: human serum (plasma-derived native protein)
# T1 sequence (P09871 438-688 limits assumed): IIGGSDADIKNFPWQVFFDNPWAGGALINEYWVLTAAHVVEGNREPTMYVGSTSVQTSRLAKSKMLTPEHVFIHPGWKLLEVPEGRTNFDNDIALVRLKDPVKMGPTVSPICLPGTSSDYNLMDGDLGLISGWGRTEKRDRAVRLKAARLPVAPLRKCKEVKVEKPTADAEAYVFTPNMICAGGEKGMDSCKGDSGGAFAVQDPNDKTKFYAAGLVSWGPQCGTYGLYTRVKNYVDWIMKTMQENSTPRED
# T1 sequence (P09871 16-437 partner limits assumed): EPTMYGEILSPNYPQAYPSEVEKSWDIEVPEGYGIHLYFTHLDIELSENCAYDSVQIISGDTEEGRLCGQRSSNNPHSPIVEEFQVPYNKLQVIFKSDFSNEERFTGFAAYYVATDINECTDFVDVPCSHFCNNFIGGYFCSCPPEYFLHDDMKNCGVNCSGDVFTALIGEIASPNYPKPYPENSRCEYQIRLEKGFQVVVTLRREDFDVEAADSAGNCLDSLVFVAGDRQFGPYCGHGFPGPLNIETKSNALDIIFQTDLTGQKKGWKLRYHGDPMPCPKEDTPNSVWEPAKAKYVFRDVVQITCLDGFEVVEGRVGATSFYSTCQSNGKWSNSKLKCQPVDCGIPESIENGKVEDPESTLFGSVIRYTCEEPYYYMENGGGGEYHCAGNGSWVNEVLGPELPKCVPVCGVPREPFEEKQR
# Test: Human C1s enzyme assay
# Type: biochemical
# Details: human complement C1s enzyme 1.16 nM, substrate Z-L-Lys-SBzl, A405; read-out: IC50 (Stars)
# How it was run: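 Serum-purified human C1s (1.16 nM final) preincubated 5 min at room temperature with compound in 50 mM Tris, 1 M NaCl, pH 7.5. Z-L-Lys-SBzl and DTNB added at 100 μM each; A405 recorded every 30 s. IC50 from nonlinear regression of reaction rates versus compound concentration.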
row,IC50 [nM],SMILES
1,100 to 1000,"O=C(Cn1c(-c2ccccc2)ncc(N2CCn3c(nnc3C(F)(F)F)C2)c1=O)NCc1cc2cnccc2[nH]1 [Compound 44, N-((1H-pyrrolo[3,2-c]pyridin-2-yl)methyl)-2-(6-oxo-2-phen-yl-5-(3-(trifluoromethyl)-5,6-dihydro-[1,2,4]triazolo[4,3-a]pyrazin-7(8H)-yl)pyrimidin-1(6H)-yl)acetamide]"
2,< 100,"COc1ccc(CCCNc2cnc(-c3ccccc3)n(CC(=O)NCc3cc4cnccc4[nH]3)c2=O)cc1 [Compound 45, N-((1H-pyrrolo[3,2-c]pyridin-2-yl)methyl)-2-(5-((3-(4-methoxyphenyl)propyl)amino)-6-oxo-2-phenylpyrimidin-1(6H)-yl)acetamide]"
3,< 100,"O=C(Cn1c(-c2ccccc2)ncc(NCCCc2ccc(F)cc2)c1=O)NCc1cc2cnccc2[nH]1 [Compound 46, N-((1H-pyrrolo[3,2-c]pyridin-2-yl)methyl)-2-(5-((3-(4-fluorophenyl)propyl)amino)-6-oxo-2-phenylpyrimidin-1(6H)-yl)acetamide]"
4,> 1000,"C[C@H](NC(=O)Cn1c(-c2ccccc2)cnc(NCCCc2ccccc2)c1=O)c1cc2cnccc2[nH]1 [Compound 47, (S)-N-(1-(1H-pyrrolo[3,2-c]pyridin-2-yl)ethyl)-2-(2-oxo-6-phenyl-3-((3-phenylpropyl)-amino)pyrazin-1(2H)-yl)-acetamide]"
5,< 100,"N#Cc1ccc(CCCNc2cnc(-c3ccccc3)n(CC(=O)NCc3cc4cnccc4[nH]3)c2=O)cc1 [Compound 48, N-((1H-pyrrolo[3,2-c]pyridin-2-yl)methyl)-2-(5-((3-(4-cyanophenyl)propyl)amino)-6-oxo-2-phenylpyrimidin-1(6H)-yl)acetamide]"
6,< 100,"O=C(Cn1c(-c2ccccc2)ncc(NC(=O)C2CCC(Oc3ccccc3)CC2)c1=O)NCc1cc2cnccc2[nH]1 (stereo not shown) [Compound 49, N-[6-oxo-1-[2-oxo-2-(1H-pyrrolo[3,2-c]pyridin-2-ylmethylamino)ethyl]-2-phenyl-pyrimidin-5-yl]-4-phenoxy-cyclohexanecarboxamide]"
7,< 100,"O=C(Cn1c(-c2ccccc2)ncc(NC(=O)c2ccc(Oc3ccc(C(F)(F)F)cc3)cc2)c1=O)NCc1cc2cnccc2[nH]1 [Compound 50, N-(1-(2-(((1H-pyrrolo[3,2-c]pyridin-2-yl)methyl)amino)-2-oxoethyl)-6-oxo-2-phenyl-1,6-dihydropyrimidin-5-yl)-4-(4-(trifluoromethyl)phenoxy)-benzamide]"
8,< 100,"O=C(Cn1c(-c2ccccc2)ncc(NC(=O)c2ccc(Oc3ccc(Br)cc3)cc2)c1=O)NCc1cc2cnccc2[nH]1 [Compound 51, N-(1-(2-(((1H-pyrrolo[3,2-c]pyridin-2-yl)methyl)amino)-2-oxoethyl)-6-oxo-2-phenyl-1,6-dihydropyrimidin-5-yl)-4-(4-bromophenoxy)benzamide]"
9,< 100,"O=C(Cn1c(-c2ccccc2)ncc(NC(=O)c2ccc(Oc3ccc(F)cc3)cc2)c1=O)NCc1cc2cnccc2[nH]1 [Compound 52, N-(1-(2-(((1H-pyrrolo[3,2-c]pyridin-2-yl)methyl)amino)-2-oxoethyl)-6-oxo-2-phenyl-1,6-dihydropyrimidin-5-yl)-4-(4-fluorophenoxy)benzamide]"
10,< 100,"O=C(Cn1c(-c2ccccc2)ncc(NC(=O)c2ccc(Oc3cccnc3)cc2)c1=O)NCc1cc2cnccc2[nH]1 [Compound 53, N-(1-(2-(((1H-pyrrolo[3,2-c]pyridin-2-yl)methyl)amino)-2-oxoethyl)-6-oxo-2-phenyl-1,6-dihydropyrimidin-5-yl)-4-(pyridin-3-yloxy)benzamide]"
11,< 100,"O=C(Cn1c(-c2ccccc2)ncc(NC(=O)c2ccc(Oc3ccc(F)cc3F)cc2)c1=O)NCc1cc2cnccc2[nH]1 [Compound 55, N-(1-(2-(((1H-pyrrolo[3,2-c]pyridin-2-yl)methyl)amino)-2-oxoethyl)-6-oxo-2-phenyl-1,6-dihydropyrimidin-5-yl)-4-(2,4-difluorophenoxy)benzamide]"
12,< 100,"O=C(Cn1c(-c2ccccc2)ncc(NC(=O)c2ccc(-c3cccs3)cc2)c1=O)NCc1cc2cnccc2[nH]1 [Compound 56, N-(1-(2-(((1H-pyrrolo[3,2-c]pyridin-2-yl)methyl)amino)-2-oxoethyl)-6-oxo-2-phenyl-1,6-dihydropyrimidin-5-yl)-4-(thiophen-2-yl)benzamide]"
13,< 100,"O=C(Cn1c(-c2ccccc2)ncc(NC(=O)c2ccc(Oc3ccccc3)o2)c1=O)NCc1cc2cnccc2[nH]1 [Compound 57, N-(1-(2-(((1H-pyrrolo[3,2-c]pyridin-2-yl)methyl)amino)-2-oxoethyl)-6-oxo-2-phenyl-1,6-dihydropyrimidin-5-yl)-5-phen-oxyfuran-2-carboxamide]"
14,< 100,"O=C(Cn1c(-c2ccccc2)ncc(NC(=O)c2cccc(Oc3ccccc3)c2)c1=O)NCc1cc2cnccc2[nH]1 [Compound 58, N-(1-(2-(((1H-pyrrolo[3,2-c]pyridin-2-yl)methyl)amino)-2-oxoethyl)-6-oxo-2-phenyl-1,6-dihydropyrimidin-5-yl)-3-phen-oxybenzamide]"
15,< 100,"O=C(Cn1c(-c2ccccc2)ncc(NC(=O)c2ccc(-n3cccc3)cc2)c1=O)NCc1cc2cnccc2[nH]1 [Compound 59, N-(1-(2-(((1H-pyrrolo[3,2-c]pyridin-2-yl)methyl)amino)-2-oxoethyl)-6-oxo-2-phenyl-1,6-dihydropyrimidin-5-yl)-4-(1H-pyrrol-1-yl)benzamide]"
16,< 100,"O=C(Cn1c(-c2ccccc2)cnc(NCc2ccc(-c3ccccc3)cc2)c1=O)NCc1cc2cnccc2[nH]1 [Compound 60, N-((1H-pyrrolo[3,2-c]pyridin-2-yl)methyl)-2-(3-(([1,1′-biphenyl]-4-ylmethyl)amino)-2-oxo-6-phenylpyrazin-1(2H)-yl)acetamide]"
17,< 100,"C[C@@H](Nc1cnc(-c2ccccc2)n(CC(=O)NCc2cc3cnccc3[nH]2)c1=O)c1ccc(Oc2ccccc2)cc1 [Compound 61, (R)—N-((1H-pyrrolo[3,2-c]pyridine-2-yl)methyl)-2-(6-oxo-5-((1-(4-phenoxyphenyl)ethyl)amino)-2-phenylpyrimidin-1(6H)-yl)acetamide]"
18,< 100,"C[C@H](Nc1cnc(-c2ccccc2)n(CC(=O)NCc2cc3cnccc3[nH]2)c1=O)c1ccc(Oc2ccccc2)cc1 [Compound 62, (S)-N-((1H-pyrrolo[3,2-c]pyr-idin-2-yl)methyl)-2-(6-oxo-5-((1-(4-phenoxyphenyl)ethyl)-amino)-2-phenylpyrimidin-1(6H)-yl)acetamide]"
19,< 100,"O=C(Cn1c(-c2ccccc2)cnc(NCc2ccc(Oc3ccccc3)cc2)c1=O)NCc1cc2cnccc2[nH]1 [Compound 63, N-((1H-pyrrolo[3,2-c]pyridine-2-yl)methyl)-2-(2-oxo-3-((4-phenoxybenzyl)amino)-6-phenylpyrazin-1(2H)-yl)acetamide]"
20,< 100,"O=C(Cn1c(-c2ccccc2)ncc(NCCCc2ccc3sc4ccccc4c3c2)c1=O)NCc1cc2cnccc2[nH]1 [Compound 64, N-((1H-pyrrolo[3,2-c]pyridin-2-yl)methyl)-2-(5-((3-(dibenzo [b,d]thiophen-2-yl)propyl)-amino)-6-oxo-2-phenylpyrimi-din-1(6H)-yl)acetamide]"
21,100 to 1000,"O=C(Cn1c(-c2ccccc2)ncc(N2CC3CCC2C3)c1=O)NCc1cc2cnccc2[nH]1 (stereo not shown) [Compound 65, N-((1H-pyrrolo[3,2-c]pyridin-2-yl)methyl)-2-(5-(2-azabicyclo [2.2.1]heptan-2-yl)-6-oxo-2-phenylpyrimidin-1(6H)-yl)-acetamide]"
22,< 100,"NS(=O)(=O)COc1ccc(-c2ncc(NCCCc3ccccc3)c(=O)n2CC(=O)NCc2cc3cnccc3[nH]2)cc1 [Compound 67, N-((1H-pyrrolo[3,2-c]pyridine-2-yl)methyl)-2-(6-oxo-5-((3-phenylpropyl)amino)-2-(4-(sulfamoylmethoxy)phenyl)pyrimidin-1(6H)-yl)acetamide]"
23,< 100,"CP(=O)(O)c1ccc(-c2ncc(NCCCc3ccccc3)c(=O)n2CC(=O)NCc2cc3cnccc3[nH]2)cc1 [Compound 68, (4-(1-(2-(((1H-pyrrolo[3,2-c]pyridine-2-yl)methyl)amino)-2-oxoethyl)-6-oxo-5-((3-phenylpropyl)amino)-1,6-dihydropyrimidin-2-yl)phenyl)(methyl)phosphinic acid]"
24,< 100,"CS(=O)(=O)c1ccc(-c2ncc(NCCCc3ccccc3)c(=O)n2CC(=O)NCc2cc3cnccc3[nH]2)cc1 [Compound 69, N-((1H-pyrrolo[3,2-c]pyridine-2-yl)methyl)-2-(2-(4-(methylsulfonyl)phenyl)-6-oxo-5-((3-phenylpropyl)amino)pyrimidin-1(6H)-yl)acetamide]"
25,100 to 1000,"O=C(Cn1c(-c2ccccc2)ncc(Br)c1=O)NCc1cc2cnccc2[nH]1 [Compound 71, N-((1H-pyrrolo[3,2-c]pyridin-2-yl)methyl)-2-(5-bromo-6-oxo-2-phenylpyrimidin-1(6H)-yl)acetamide]"
